Assays:
cS1P2 receptor [1] = biological target: T1, cS1P2 receptor (Canis lupus familiaris, UniProt A0A8I3P3I1); assay: S1P ligand binding assay with transfected CHO cells expressing the cS1P2 receptor; set-up: species or system Canis (dog); conditions: 33P-S1P binding to CHO cells expressing cS1P2, 60 minutes at room temperature; read-out: EC50 (S1P ligand binding, FIG. 3)
Procedure: The transfected CHO cells from Example 2 expressing the cS1P2 receptor were evaluated for the ability of the cS1P2 receptor expressed in the cells to properly integrate into the cell membrane and bind SIP.
Transfected CHO cells from Example 2 were harvested with enzyme-free dissociation solution (Specialty Media, Lavallette, N.J.). The cells were washed once in cold PBS and suspended in SIP binding buffer (50 mM HEPES-Na, pH 7.5, 5 mM MgCl2, 1 mM CaCl2, 0.5% FAF-BSA). ^33P-S1P was synthesized enzymatically from γ^33P-ATP and sphingosine using a crude extract with sphingosine kinase activity in a reaction mix containing 50 mM KH2PO4, 1 mM mercaptoethanol, 1 mM Na3VO4, 25 mM KF, 2 mM semicarbazide, 1 mM Na2EDTA, 5 mM MgCl2, […], 0.1% TritonX-114, and 1 mCi γ^33P-ATP (NEN; specific activity 2000 Ci/mnol). Reaction products were extracted with butanol and ^33P-S1p was purified by HPLC.
^33P-S1P (0.1 uCi/ml) was sonicated with 0.2 nM S1P dissolved in binding buffer; 100 μL of the mixture was added to 100 μL cells (1×10^5). Binding was performed for 60 minutes at room temperature. […] After drying the filter plates for 30 minutes, 50 μL of MICROSCINT 20 was added to each well and binding was measured with a Packard Top Count. Non-specific binding was defined as the amount of radioactivity remaining in the presence of 200 nM cold S1P.

cS1P2 receptor [2] = biological target: T1, cS1P2 receptor; assay: 35S-GTPγS binding assay with membranes from transfected CHO cells; type: biochemical, Canis (dog); conditions: membranes of cS1P2-transfected CHO cells, 5 μM GDP, 100 pM 35S-GTPγS, one hour at room temperature; read-out: EC50 (35S-GTPγS binding, FIG. 4)
Procedure: Functional coupling of the cS1P2 receptor to G proteins was measured in a ^35S-GTPγS binding assay. Membranes were prepared from transfected cells by homogenization in ice cold 20 mM HEPES pH 7.4, 10 mM EDTA using a Kinematica polytron (setting 5, for 10 seconds). Homogenates were centrifuged at 48,000×g for 15 minutes at 4° C. and the pellet suspended in 20 mM HEPES pH 7.4, 0.11 mM EDTA. Following a second centrifugation, the final pellet was suspended in 20 mM HEPES pH 7.4, 100 mM NaCl, 10 mM MgCl2. Membranes were incubated in 200 μL with 5 μM GDP, various concentrations of SIP (sonicated in 1% BSA), and 100 pM ^35S-GTPγS (NEN; specific activity 1250 Ci/mmol) in 96 well microtiter dishes. Binding was performed for one hour at room temperature, and terminated by harvesting the membranes onto GF/B filter plates with a Packard Filtermate Universal Harvester. After drying the filter plates for 30 min, 40 μL of MICROSCINT 20 was added to each well and binding was measured on a Packard Top Count scintillation counter.

CCCCCCCCCCCCC/C=C/[C@@H](O)[C@@H](N)COP(=O)(O)O [S1P, sphingosine-1-phosphate]
EC50 (cS1P2 receptor [1]): ~5.7 nM | EC50 (cS1P2 receptor [2]): ~0.8 nM
